From ChEMBL document CHEMBL1140242, “Metabolism investigation leading to novel drug design: orally active prostacyclin mimetics. Part 4” (Bioorg Med Chem Lett, 2005)

Legend:
[1] = species on record: Homo sapiens; experiment: Inhibition of ADP-induced aggregation of human platelets; assay type: functional, organism-based
[2] = biological target: Prostaglandin F2-alpha receptor (Homo sapiens, UniProt P43088); experiment: Inhibition of [3H]-PGF-2 binding to human Prostanoid FP receptor
[3] = Bioavailability of the drug after […] administration at a dose of 1 (mg/kg) in rat; assay type: ADME, organism-based; settings: in vivo, iv, read-out: Ba
[4] = Total body clearance of drug from the plasma after i.v. administration at a dose of 1 (mg/kg) in rat; assay type: ADME, organism-based; settings: iv, read-out: CLtot
[5] = biological target: T1, Prostaglandin D2 receptor (Homo sapiens, UniProt Q13258); experiment: Inhibition of [3H]PGD-2 binding to human Prostanoid DP receptor
T1 sequence (Q13258 whole entry): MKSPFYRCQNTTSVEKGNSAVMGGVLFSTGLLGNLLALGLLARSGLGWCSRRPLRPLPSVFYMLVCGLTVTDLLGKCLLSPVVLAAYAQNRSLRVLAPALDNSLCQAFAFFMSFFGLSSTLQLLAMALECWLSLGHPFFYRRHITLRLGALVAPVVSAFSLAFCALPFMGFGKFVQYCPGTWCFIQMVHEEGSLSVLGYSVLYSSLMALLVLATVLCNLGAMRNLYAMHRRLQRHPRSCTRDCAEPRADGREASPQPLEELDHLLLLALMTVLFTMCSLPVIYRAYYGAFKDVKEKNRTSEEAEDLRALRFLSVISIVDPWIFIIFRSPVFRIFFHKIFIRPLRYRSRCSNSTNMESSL

[6] = biological target: Prostacyclin receptor (Homo sapiens, UniProt P43119); experiment: Inhibition of [3H]-Iloprost binding to human Prostanoid IP receptor
Prostacyclin receptor, sequence (P43119 whole entry): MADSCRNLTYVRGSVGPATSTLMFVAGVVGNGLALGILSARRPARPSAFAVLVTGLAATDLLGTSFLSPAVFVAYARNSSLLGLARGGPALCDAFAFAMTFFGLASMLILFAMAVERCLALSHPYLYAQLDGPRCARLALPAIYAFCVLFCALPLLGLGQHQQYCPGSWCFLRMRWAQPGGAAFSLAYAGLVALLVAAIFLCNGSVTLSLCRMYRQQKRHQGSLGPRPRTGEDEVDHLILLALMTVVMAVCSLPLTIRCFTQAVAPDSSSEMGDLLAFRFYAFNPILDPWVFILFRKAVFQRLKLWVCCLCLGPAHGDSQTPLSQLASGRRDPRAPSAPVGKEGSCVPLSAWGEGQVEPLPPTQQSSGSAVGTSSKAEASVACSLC

[7] = biological target: Prostaglandin E2 receptor EP2 subtype (Homo sapiens, UniProt P43116); experiment: Inhibition of [3H]PGE-2 binding to Prostanoid EP2 receptor
Prostaglandin E2 receptor EP2 subtype, sequence (P43116 whole entry): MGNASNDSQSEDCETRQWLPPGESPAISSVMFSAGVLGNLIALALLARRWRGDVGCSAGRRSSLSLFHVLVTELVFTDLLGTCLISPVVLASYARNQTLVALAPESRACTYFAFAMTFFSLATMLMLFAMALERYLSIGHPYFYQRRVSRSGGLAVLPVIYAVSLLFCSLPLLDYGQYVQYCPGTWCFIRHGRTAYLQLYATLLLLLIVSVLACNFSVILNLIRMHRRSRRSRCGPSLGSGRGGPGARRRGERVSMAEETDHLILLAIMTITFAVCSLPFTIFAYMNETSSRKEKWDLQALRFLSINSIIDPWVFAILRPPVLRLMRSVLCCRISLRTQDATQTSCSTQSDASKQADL

[8] = species on record: Rattus norvegicus; experiment: Inhibition of ADP-induced aggregation of rat platelets; assay type: functional, organism-based
[9] = biological target: T2, Prostaglandin E2 receptor EP1 subtype (Homo sapiens, UniProt P34995); experiment: Inhibition of [3H]PGE-2 binding to Prostanoid EP1 receptor
T2 sequence (P34995 whole entry): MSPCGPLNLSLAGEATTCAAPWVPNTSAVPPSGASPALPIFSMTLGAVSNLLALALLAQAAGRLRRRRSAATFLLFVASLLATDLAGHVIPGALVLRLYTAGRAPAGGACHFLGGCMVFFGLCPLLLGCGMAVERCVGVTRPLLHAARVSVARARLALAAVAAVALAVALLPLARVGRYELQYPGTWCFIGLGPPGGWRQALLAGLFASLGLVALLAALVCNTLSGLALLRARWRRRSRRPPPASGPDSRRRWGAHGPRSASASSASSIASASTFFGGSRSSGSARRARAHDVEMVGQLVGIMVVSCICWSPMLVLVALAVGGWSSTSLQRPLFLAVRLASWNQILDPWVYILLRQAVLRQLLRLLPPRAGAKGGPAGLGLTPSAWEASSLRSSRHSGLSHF

[10] = biological target: T3, Thromboxane A2 receptor (Homo sapiens, UniProt P21731); experiment: Inhibition of [3H]SQ-29,548 binding to human Prostanoid TP receptor
T3 sequence (P21731 whole entry): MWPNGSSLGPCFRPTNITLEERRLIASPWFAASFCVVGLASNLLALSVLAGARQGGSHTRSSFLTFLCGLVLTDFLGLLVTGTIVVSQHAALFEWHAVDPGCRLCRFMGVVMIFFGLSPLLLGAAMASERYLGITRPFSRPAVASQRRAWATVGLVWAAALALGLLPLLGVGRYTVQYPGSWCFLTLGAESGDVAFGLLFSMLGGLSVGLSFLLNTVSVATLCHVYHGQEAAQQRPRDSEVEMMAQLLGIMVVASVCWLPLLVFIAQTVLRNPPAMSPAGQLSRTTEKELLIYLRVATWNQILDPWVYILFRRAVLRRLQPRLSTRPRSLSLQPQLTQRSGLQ

[11] = species on record: Canis familiaris; experiment: Inhibition of ADP-induced aggregation of dog platelets; assay type: functional; settings: Canis lupus familiaris
[12] = biological target: Prostaglandin E2 receptor EP4 subtype (Homo sapiens, UniProt P35408); experiment: Inhibition of [3H]PGE-2 binding to Prostanoid EP4 receptor
Prostaglandin E2 receptor EP4 subtype, sequence (P35408 whole entry): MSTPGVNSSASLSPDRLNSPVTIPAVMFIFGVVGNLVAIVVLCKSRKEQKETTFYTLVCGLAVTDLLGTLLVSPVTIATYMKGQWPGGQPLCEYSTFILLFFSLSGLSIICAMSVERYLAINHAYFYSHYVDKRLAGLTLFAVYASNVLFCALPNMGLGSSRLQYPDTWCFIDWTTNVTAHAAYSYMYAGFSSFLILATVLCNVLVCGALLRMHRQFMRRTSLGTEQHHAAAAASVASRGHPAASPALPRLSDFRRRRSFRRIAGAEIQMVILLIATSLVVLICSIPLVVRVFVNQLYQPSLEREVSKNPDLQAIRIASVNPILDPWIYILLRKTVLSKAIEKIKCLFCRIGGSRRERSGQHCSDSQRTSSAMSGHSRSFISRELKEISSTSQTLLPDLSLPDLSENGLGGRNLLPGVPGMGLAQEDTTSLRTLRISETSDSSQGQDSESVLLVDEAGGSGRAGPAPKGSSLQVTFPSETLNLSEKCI

[13] = biological target: T4, Prostaglandin E2 receptor EP3 subtype (Homo sapiens, UniProt P43115); experiment: Inhibition of [3H]-PGE-2 binding to Prostanoid EP3 receptor
T4 sequence (P43115 whole entry): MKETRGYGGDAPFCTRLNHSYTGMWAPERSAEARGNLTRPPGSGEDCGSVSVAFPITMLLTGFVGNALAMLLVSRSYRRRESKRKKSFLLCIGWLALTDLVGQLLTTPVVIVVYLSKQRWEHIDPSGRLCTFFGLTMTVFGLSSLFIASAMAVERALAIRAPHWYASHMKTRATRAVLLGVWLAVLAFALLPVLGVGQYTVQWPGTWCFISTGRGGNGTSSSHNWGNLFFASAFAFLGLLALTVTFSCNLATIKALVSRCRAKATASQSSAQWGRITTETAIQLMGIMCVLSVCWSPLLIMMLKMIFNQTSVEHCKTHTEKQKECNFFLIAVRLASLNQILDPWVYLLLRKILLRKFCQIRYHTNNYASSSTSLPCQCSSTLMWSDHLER

[14] = Elimination half-life after peroral administration at a dose of 0.32 (mg/kg) in rat; assay type: ADME, organism-based; settings: in vivo, po
[15] = Maximum (Peak) plasma drug concentration after single-dose administration at a dose of 1 (mg/kg) in rat; assay type: ADME, organism-based; parameters: dose 1 mg/kg
[16] = Inhibition of ADP-induced aggregation of monkey platelets; assay type: functional; settings: Cercopithecidae
[17] = Area Under Plasma concentration-time curve after peroral administration at a dose of 1 (mg/kg) in rat; assay type: ADME, organism-based; settings: po
[18] = Maximum (Peak) plasma drug concentration after single-dose administration at a dose of 0.32 (mg/kg) in rat; assay type: ADME, organism-based; parameters: dose 0.32 mg/kg
[19] = Bioavailability of the drug after […] administration at a dose of 0.32 (mg/kg) in rat; assay type: ADME, organism-based; settings: in vivo, iv, read-out: Ba
[20] = Total body clearance of drug from the plasma after i.v. administration at a dose of 0.32 (mg/kg) in rat; assay type: ADME, organism-based; settings: iv, read-out: CLtot
[21] = system: Rattus norvegicus; experiment: Effective dose for in vivo activity in D-GalN/LPS-induced rat hepatic injury model; assay type: functional
[22] = Area Under Plasma concentration-time curve after peroral administration at a dose of 0.32 (mg/kg) in rat; assay type: ADME, organism-based; settings: po

Prostaglandin F2-alpha receptor, sequence (P43088 whole entry): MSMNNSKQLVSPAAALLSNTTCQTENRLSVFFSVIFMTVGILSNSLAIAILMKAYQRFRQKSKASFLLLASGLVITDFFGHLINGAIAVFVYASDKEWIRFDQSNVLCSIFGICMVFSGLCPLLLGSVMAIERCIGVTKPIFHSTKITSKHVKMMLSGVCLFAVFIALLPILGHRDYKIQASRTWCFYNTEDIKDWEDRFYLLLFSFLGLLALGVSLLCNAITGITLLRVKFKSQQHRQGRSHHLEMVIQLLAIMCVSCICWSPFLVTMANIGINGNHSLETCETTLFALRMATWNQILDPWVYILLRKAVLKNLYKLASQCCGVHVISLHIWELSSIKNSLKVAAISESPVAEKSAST

Question: For `O=C(O)COc1cccc(C[C@@H]2CCC=CC2(O)c2nc(-c3ccccc3)c(-c3ccccc3)o2)c1` (stereo not given in full), which IC50 [1] is on record?
Answer: 98 nM

Question: With `O=C([O-])COc1cccc(C[C@@H]2CCC[C@@H]3O[C@]23c2nc(-c3ccccc3)c(-c3ccccc3)o2)c1.[Na+]` as the compound, how does the Ki [2] read?
Answer: > 10000 nM

Question: What about the bioavailability [3] of the same compound?
Answer: 20%

Question: What about the clearance [4] of the same compound?
Answer: 18.6 mL/min/kg

Question: What about the Ki [5] of the same compound?
Answer: 2900 nM

Question: And the Ki [6]?
Answer: 6.1 nM

Question: What about the Ki [7] of the same compound?
Answer: 1400 nM

Question: What about the IC50 [8] of the same compound?
Answer: 300 nM

Question: And the Ki [9]?
Answer: > 10000 nM

Question: And the Ki [10]?
Answer: 930 nM

Question: And the IC50 [1]?
Answer: 5.8 nM

Question: What about the IC50 [11] of the same compound?
Answer: 1470 nM

Question: What about the Ki [12] of the same compound?
Answer: 7200 nM

Question: And the Ki [13]?
Answer: 3200 nM

Question: And the half-life [14]?
Answer: 26.9 h

Question: And the Cmax [15]?
Answer: 67.9 ng/mL

Question: What about the IC50 [16] of the same compound?
Answer: 12 nM

Question: And the AUC [17]?
Answer: 168 ng·h/mL

Question: Which IC50 [1] does the source give for `O=C(O)COc1cccc(C[C@@H]2CCC[C@H]3O[C@@]23c2nc(-c3ccccc3)c(-c3ccccc3)o2)c1` here?
Answer: 12 nM

Question: With `O=C([O-])COc1cccc(C[C@@H]2CCC=C2c2nc(-c3ccccc3)c(-c3ccccc3)o2)c1.[Na+]` as the compound, how does the Cmax [18] read?
Answer: 45.2 ng/mL

Question: What about the bioavailability [19] of the same compound?
Answer: 78%

Question: What about the Ki [6] of the same compound?
Answer: 41 nM

Question: What about the IC50 [8] of the same compound?
Answer: 2800 nM

Question: What about the IC50 [1] of the same compound?
Answer: 56 nM

Question: And the clearance [20]?
Answer: 9.19 mL/min/kg

Question: What about the ED50 [21] of the same compound?
Answer: 1 mg/kg

Question: What about the half-life [14] of the same compound?
Answer: 17 h

Question: And the AUC [22]?
Answer: 42.5 ng·h/mL

Question: With `O=C([O-])COc1cccc(C[C@@H]2CCCC=C2c2nc(-c3ccccc3)c(-c3ccccc3)o2)c1.[Na+]` as the compound, how does the Cmax [18] read?
Answer: 16.4 ng/mL

Question: And the bioavailability [19]?
Answer: 50%

Question: What about the ED50 [21] of the same compound?
Answer: 0.032 mg/kg

Question: And the half-life [14]?
Answer: 6.6 h

Question: What about the IC50 [16] of the same compound?
Answer: 188 nM

Question: Which IC50 [1] does the source give for `O=C(O)COc1cccc(C[C@@H]2CCCC3OC32c2nc(-c3ccccc3)c(-c3ccccc3)o2)c1` (stereo not given in full) here?
Answer: 14 nM

Question: For `O=C(O)COc1cccc(C[C@@H]2CCCC(O)=C2c2nc(-c3ccccc3)c(-c3ccccc3)o2)c1`, which IC50 [1] is on record?
Answer: 116 nM
